Measurements: patent publication US9630894B2, “Energy efficient method and apparatus for the extraction of biomolecules from dilute aqueous solution” (DYNASEP INC., priority 2012, dated 2017)

How the values were obtained:
Format in all cases: physicochemical
[1] = Packed-column extraction of ethanol and ABE solutions with liquid DME, incremental distribution coefficients; conditions: for Distribution Coefficient: ABE solution
Method: The tests were carried out in a 50-inch long by 0.68-inch internal diameter (ID) column containing stainless steel distillation packing to increase mass transfer between the liquid DME and the aqueous solution. The flow rate of the liquid DME for all the tests was about […], which calculates to a superficial velocity of the liquid DME of ˜0.3 cm/sec.
For each test, about 65 g of a pre-made feed solution was charged to the extraction column, and the column was sealed. DME was introduced into the system and pressure was maintained at 250 psi with the lab pump. Each run was carried out at ambient temperature (about 30° C.), and flow was manually controlled with the pressure-reduction valve.
About ⅓ of the charge was extracted in each test with DME in three fractions, and the raffinate was collected at the end of each test in two fractions. In the event that the concentration of ethanol, or ABE, in the raffinate was not homogeneous along the length of the column, the raffinate was collected in two fractions where RAF#1 was the first (bottom) portion of the raffinate drained and RAF#2 was the remaining (upper) portion.
All samples along with controls were sent to R.D. Laboratories (Washington, Mo.) for gas chromatography (GC) analysis.
The distribution coefficient (DC) is calculated as the ratio of the concentration of the component in the extract (y) phase to the concentration of the component in the raffinate (x) phase, or DC=Cy/Cx. Using the material balance information in the tables above, and the component analysis supplied by R.D. Labs, the incremental DCs for each fraction were calculated. These DCs are calculated using the conservative assumption that there is no dissolved DME in the liquid phase remaining in the extractor.

[2] = Distribution coefficients of ABE mixtures between DME and aqueous phase in agitated pressure vessel, HPLC
Method: The compositions of the aqueous mixtures were based on concentrations typically produced in a cellulosic fermentation.
Mixtures were charged to a pressure vessel and agitated to provide adequate contacting between the aqueous and solvent (DME) phases. Heat tape was used to control the temperature of the liquid that was measured by thermocouples. Pressure and temperature measurements were taken every five minutes. After temperature and pressure stabilization agitation was ceased and the liquid phases were allowed to fully settle.
A mass balance was also performed on each component of the ABE and BE mixtures to determine a degree of accuracy of the results.

[3] = CCC extraction with DME of clarified fermentation broth from Clostridium acetobutylicum, GC and DNS assay
Method: This example describes three different runs of the CCC with fermentation broth from Clostridium acetobutylicum. […] The fermentation was intentionally interrupted prior to completion.
The extraction column operated at room temperature (˜25° C.) throughout the column. Periodic extract and raffinate samples were taken and analyzed for the constituents in the extract and raffinate discharges.
This example describes three different runs. In all cases, the mass of solvent to the mass of feed ratio (S/F) was 0.9. In all example the fermentation broth was first centrifuged to removal all cellular matter. Thus, the feed solution was clarified. In the case of the first run, the following components were measured via gas chromatograph (GC) analysis using external standard calibration. The external standard was run prior to analyzing the samples to provide individual calibration between peak area and the respective constituent under measure. […] Acetate was the conjugate base of acetic acid. Butyrate was the conjugate base of butyric acid. All components were quantified in the extract and raffinate. Since the extract and raffinate are mostly water and DME dissolves in water to approximately 20 wt. %, the samples were allowed to degas over a 24 hour period.
During the run, samples were taken of the extract and raffinate. In the case of the extract, the bulk DME was removed by reduction of pressure and addition of heat to flash the DME from the water and other solution constituents.
Extract and raffinate samples were collected at periodic intervals during the CCC testing. […] Glucose was measured via a DNS (3,5-dinitrosalicylic acid) assay.
In cases where the extract formed a two phase solution, the extract samples were diluted with distilled water to create a single phase and homogenous sample prior to GC. The dilution factor was then used to correct the GC measurements for concentrations prior to dilution.

In the case of CC(C)=O [Acetone, acetone], the “Distribution Coefficient” value ([1]; fraction F1, liquid DME) was 0.24, the “Distribution Coefficient” value ([1]; fraction F2, liquid DME) was 0.16 and the “Distribution Coefficient” value ([1]; fraction F3, liquid DME) was 0.04. The “distribution coefficient, previous measurements” value ([1]; previous results, DME/aqueous) was 0.25, the “distribution coefficient (slope of line fit)” value ([2]; 38° C.) was 1.27 and the DC ([2]; test ABE1, […] C., 104 psig) was 1.28. For the same molecule, the DC ([2]; test ABE2, 38.3 ° C., 102 psig) was 1.25, the DC ([2]; test ABE3, 38.3 ° C., 103 psig) was 1.23 and the DC ([2]; test ABE4, 38.0 ° C., 103 psig) was 1.34. For the same molecule, the concentration in sample ([3]; Run 3, Extract Bot, time 31 min) was 7880 µg/mL, the concentration in sample ([3]; Run 3, Extract Bot, time 37 min) was 7900 µg/mL and the concentration in sample ([3]; Run 3, Extract Top, time 31 min) was 7030 µg/mL. For the same molecule, the concentration in sample ([3]; Run 3, Extract Top, time 37 min) was 6440 µg/mL, the concentration in sample ([3]; Run 3, Extract, time 22 min) was 2980 µg/mL and the concentration in sample ([3]; Run 3, Extract, time 27 min) was 5300 µg/mL. It also gave a concentration in sample ([3]; Run 3, Extract, time 43 min) of 5140 µg/mL, a concentration in sample ([3]; Run 3, Extract, time 70 min) of 4610 µg/mL and a concentration in sample ([3]; Run 3, Extract, time 74 min) of 4090 µg/mL. For the same molecule, the concentration in sample ([3]; Run 3, Extract, time 78 min) was 3830 µg/mL, the concentration in sample ([3]; Run 3, Extract, time 82 min) was 4630 µg/mL and the concentration in sample ([3]; Run 3, Feed, time 0 min) was 4870 µg/mL. The concentration in sample ([3]; Run 3, Raffinate, time 22 min) was 1200 µg/mL, the concentration in sample ([3]; Run 3, Raffinate, time 27 min) was 400 µg/mL and the concentration in sample ([3]; Run 3, Raffinate, time 31 min) was 310 µg/mL. The concentration in sample ([3]; Run 3, Raffinate, time 37 min) was 140 µg/mL, the concentration in sample ([3]; Run 3, Raffinate, time 43 min) was 150 µg/mL and the concentration in sample ([3]; Run 3, Raffinate, time 70 min) was 110 µg/mL. For the same molecule, the concentration in sample ([3]; Run 3, Raffinate, time 74 min) was 600 µg/mL, the concentration in sample ([3]; Run 3, Raffinate, time 78 min) was 820 µg/mL and the concentration in sample ([3]; Run 3, Raffinate, time 82 min) was 460 µg/mL.
